Test system: CVD (CHD or stroke)
Assay: WOSCOPS: SNP by pravastatin treatment interaction, logistic regression (synergy index), CVD endpoint
Type: in vivo, human
Settings: for OR: WOSCOPS; for WOSCOPS OR: endpoint CVD
Text: CARE was a secondary prevention trial and WOSCOPS was a primary prevention trial.
The CHD endpoint was defined in the analyses herein of CARE as a composite endpoint of fatal CHD, definite non-fatal MI, or revascularization, and was defined in the analyses herein of WOSCOPS as a composite endpoint of death from CHD, nonfatal MI, or revascularization. In both the CARE and WOSCOPS analyses herein, the CVD endpoint was defined as a composite endpoint of CHD or stroke. […] Revascularization, which can include percutaneous transluminal coronary angioplasty (PTCA), stent placement, and coronary artery bypass graft (CABG), are medical interventions that indicate the presence of CHD.
Cohort and case-only study designs were used to identify SNPs associated with response to statin treatment.
For each SNP, a logistic regression model having treatment status as the dependent variable and SNP as the independent predictor variable was performed, with terms for age, sex and race included in the model as covariates. The anti-log of the regression coefficient corresponding to the SNP is an estimate of the synergy index (SI) (Davis et al., “Imputing gene-treatment interactions when the genotype distribution is unknown using case-only and putative placebo analyses-a new method for the Genetics of Hypertension Associated Treatment (GenHAT) study”, Statistics in Medicine 23: (2004), pages 2413-2427). The SI is a ratio of odds ratios: for example in the CARE and WOSCOPS studies, the SI represents the factor by which the odds-ratio of statin treatment, compared with placebo, among major homozygous individuals is multiplied by in order to obtain the odds-ratio of treatment vs. placebo among heterozygous individuals; and multiplied by a second time to obtain the odds-ratio of treatment vs. placebo in minor homozygous individuals. […] In a randomized clinical trial, genotype and treatment are independent by design.

CC[C@H](C)C(=O)O[C@H]1C[C@H](O)C=C2C=C[C@H](C)[C@H](CC[C@@H](O)C[C@@H](O)CC(=O)O)[C@H]21 [Pravastatin, pravastatin]
OR (rs1884902 allele C REC Imputed): 1.796
OR (rs1913201 allele G ADD Imputed): 0.7632
OR (rs1913201 allele G DOM Imputed): 0.5772
OR (rs1944279 allele A ADD Imputed): 1.444
OR (rs1987179 allele T DOM Imputed): 0.6667
OR (rs1990023 allele T DOM Imputed): 0.6024
OR (rs2016194 allele G DOM Imputed): 0.602
OR (rs2024789 allele C ADD Imputed): 0.7464
OR (rs2024902 allele A ADD Imputed): 2.395
OR (rs2024902 allele A DOM Imputed): 2.659
OR (rs2025107 allele A ADD Imputed): 2.387
OR (rs2025107 allele A DOM Imputed): 2.904
OR (rs2025108 allele T ADD Imputed): 2.387
OR (rs2025108 allele T DOM Imputed): 2.904
OR (rs2062448 allele T ADD Imputed): 0.4148
OR (rs2062448 allele T DOM Imputed): 0.4153
OR (rs2063591 allele C ADD Imputed): 0.7711
OR (rs2063591 allele C DOM Imputed): 0.5884
OR (rs2065604 allele C DOM Imputed): 0.4711
OR (rs2066238 allele T DOM Imputed): 0.6821
OR (rs2068051 allele G ADD Imputed): 0.6426
OR (rs2095586 allele A DOM Imputed): 1.351
OR (rs2108426 allele C DOM Imputed): 0.5994
OR (rs2110664 allele A DOM Imputed): 1.697
OR (rs2132242 allele A DOM Imputed): 0.6291
OR (rs2151644 allele T DOM Imputed): 0.4711
OR (rs2158958 allele A DOM Imputed): 0.6021
OR (rs2158961 allele G DOM Imputed): 0.6113
OR (rs2164099 allele G ADD Imputed): 1.424
OR (rs2173254 allele G REC Imputed): 0.3756
OR (rs2188079 allele C ADD Imputed): 1.5
OR (rs2190304 allele G REC Imputed): 0.628
OR (rs2190597 allele T DOM Imputed): 0.7825
OR (rs2190598 allele T DOM Imputed): 0.6021
OR (rs2190600 allele A DOM Imputed): 0.6022
OR (rs2218084 allele T REC Imputed): 4.673
OR (rs2290193, rec, Caseonly, CVD, pravastatin vs placebo): 0.35
OR (rs2626130, add, Caseonly, CVD, pravastatin vs placebo): 1.37
OR (rs4289236, add, Caseonly, CVD, pravastatin vs placebo): 1.49
OR (rs4611134, rec, Caseonly, CVD, pravastatin vs placebo): 1.56
OR (rs4643388, add, Caseonly, CVD, pravastatin vs placebo): 1.38
OR (rs6911817, add, Caseonly, CVD, pravastatin vs placebo): 5.32
OR (rs7327364, dom, Caseonly, CVD, pravastatin vs placebo): 0.64
OR (rs7497613, rec, Caseonly, CVD, pravastatin vs placebo): 0.43
OR (rs7767024, add, Caseonly, CVD, pravastatin vs placebo): 1.69
OR (rs8051893, dom, Caseonly, CVD, pravastatin vs placebo): 0.63
OR (rs9658127, add, Caseonly, CVD, pravastatin vs placebo): 5.32
OR (rs10088524, dom, Caseonly, CVD, pravastatin vs placebo): 1.80
OR (rs11925875, dom, Caseonly, CVD, pravastatin vs placebo): 0.57
OR (rs17076972 allele C REC Imputed): 1.85
OR (rs17189710 allele T ADD Imputed): 1.429
OR (rs17196143 allele A ADD Imputed): 1.543
OR (rs17353809 allele G ADD Imputed): 1.616
OR (rs17446418 allele G DOM Imputed): 0.6878
OR (rs17530747 allele T DOM Imputed): 0.6878
OR (rs17546598, dom, Caseonly, CVD, pravastatin vs placebo): 2.07
OR (rs17604285 allele C ADD Imputed): 0.4148
OR (rs17604285 allele C DOM Imputed): 0.4153
OR (rs17662322 allele T DOM Imputed): 0.6835
OR (rs17769826 allele T ADD Imputed): 1.616
OR (rs17821641 allele T ADD Imputed): 1.571
WOSCOPS OR (rs151806, source cohort, model dom): 0.67
WOSCOPS OR (rs205279, source Caseonly, model add): 1.60
WOSCOPS OR (rs312929, source cohort, model add): 0.79
WOSCOPS OR (rs316720, source cohort, model add): 0.78
WOSCOPS OR (rs354342, source Caseonly, model add): 0.62
WOSCOPS OR (rs610118, source Caseonly, model dom): 0.62
WOSCOPS OR (rs624460, source cohort, model add): 0.74
WOSCOPS OR (rs669684, source cohort, model add): 0.77
WOSCOPS OR (rs945020, source cohort, model dom): 0.72
WOSCOPS OR (rs1035618, source Caseonly, model add): 1.48
WOSCOPS OR (rs1051344, source cohort, model dom): 0.64
WOSCOPS OR (rs1167245, source Caseonly, model dom): 0.51
WOSCOPS OR (rs1349282, source cohort, model dom): 0.55
WOSCOPS OR (rs1861326, source Caseonly, model dom): 0.67
WOSCOPS OR (rs2023650, source Caseonly, model add): 0.62
WOSCOPS OR (rs2145540, source Caseonly, model dom): 0.70
WOSCOPS OR (rs2157673, source Caseonly, model add): 1.56
WOSCOPS OR (rs2231496, source Caseonly, model add): 0.67
WOSCOPS OR (rs2268650, source Caseonly, model dom): 0.71
WOSCOPS OR (rs2376764, source Caseonly, model rec): 0.48
WOSCOPS OR (rs2492367, source cohort, model add): 0.68
WOSCOPS OR (rs2495295, source Caseonly, model dom): 0.66
WOSCOPS OR (rs2534752, source cohort, model dom): 1.74
WOSCOPS OR (rs2695026, source Caseonly, model add): 0.61
WOSCOPS OR (rs2793086, source Caseonly, model add): 0.72
WOSCOPS OR (rs2843171, source Caseonly, model dom): 0.61
WOSCOPS OR (rs3213616, source cohort, model add): 0.62
WOSCOPS OR (rs3798544, source Caseonly, model dom): 1.78
WOSCOPS OR (rs4243071, source Caseonly, model rec): 0.41
WOSCOPS OR (rs4626316, source cohort, model dom): 0.38
WOSCOPS OR (rs4866354, source Caseonly, model dom): 0.31
WOSCOPS OR (rs4869033, source Caseonly, model rec): 0.47
WOSCOPS OR (rs4986146, source cohort, model add): 0.66
WOSCOPS OR (rs4993917, source Caseonly, model dom): 0.67
WOSCOPS OR (rs5017584, source Caseonly, model rec): 1.98
WOSCOPS OR (rs5021480, source Caseonly, model rec): 1.87
WOSCOPS OR (rs7179134, source cohort, model rec): 3.50
WOSCOPS OR (rs7612715, source cohort, model add): 0.55
WOSCOPS OR (rs7671659, source cohort, model dom): 1.43
WOSCOPS OR (rs9292827, source Caseonly, model dom): 0.27
WOSCOPS OR (rs9375683, source cohort, model dom): 1.31
WOSCOPS OR (rs9487284, source cohort, model dom): 0.70
WOSCOPS OR (rs9896077, source cohort, model dom): 0.71
WOSCOPS OR (rs10088505, source Caseonly, model dom): 1.78
WOSCOPS OR (rs10444402, source Caseonly, model add): 0.65
WOSCOPS OR (rs10494924, source Caseonly, model dom): 0.68
WOSCOPS OR (rs10517923, source Caseonly, model rec): 1.60
WOSCOPS OR (rs10849442, source Caseonly, model rec): 0.59
WOSCOPS OR (rs10889215, source cohort, model add): 1.95
WOSCOPS OR (rs11076320, source Caseonly, model dom): 0.68
WOSCOPS OR (rs11610993, source Caseonly, model dom): 0.49
WOSCOPS OR (rs12155847, source Caseonly, model dom): 1.61
WOSCOPS OR (rs17347854, source Caseonly, model dom): 0.62
WOSCOPS OR (rs17740227, source Caseonly, model dom): 1.53
WOSCOPS OR (rs33910446, source Caseonly, model rec): 2.23
WOSCOPS OR (rs72746987, source Caseonly, model dom): 0.34

Source: US10563263B2, “Genetic polymorphisms associated with statin response and cardiovascular diseases, methods of detection and uses thereof” (CELERA CORPORATION, priority 2010, dated 2020)
